From US7507717B2 (Xenome Ltd., priority 2002, dated 2009)
Residues, ends and D or L forms follow the SMILES beside them.

Each molecule was assayed against T1, human noradrenaline transporter (hNET) (Homo sapiens, UniProt P23975) (assay: biochemical). Conditions: not given.
T1 construct: expressed in transfected cells; host or cells: COS-7 cells (ATCC), transient transfection with metafectene
Assay type: binding

T1 sequence (P23975 whole entry): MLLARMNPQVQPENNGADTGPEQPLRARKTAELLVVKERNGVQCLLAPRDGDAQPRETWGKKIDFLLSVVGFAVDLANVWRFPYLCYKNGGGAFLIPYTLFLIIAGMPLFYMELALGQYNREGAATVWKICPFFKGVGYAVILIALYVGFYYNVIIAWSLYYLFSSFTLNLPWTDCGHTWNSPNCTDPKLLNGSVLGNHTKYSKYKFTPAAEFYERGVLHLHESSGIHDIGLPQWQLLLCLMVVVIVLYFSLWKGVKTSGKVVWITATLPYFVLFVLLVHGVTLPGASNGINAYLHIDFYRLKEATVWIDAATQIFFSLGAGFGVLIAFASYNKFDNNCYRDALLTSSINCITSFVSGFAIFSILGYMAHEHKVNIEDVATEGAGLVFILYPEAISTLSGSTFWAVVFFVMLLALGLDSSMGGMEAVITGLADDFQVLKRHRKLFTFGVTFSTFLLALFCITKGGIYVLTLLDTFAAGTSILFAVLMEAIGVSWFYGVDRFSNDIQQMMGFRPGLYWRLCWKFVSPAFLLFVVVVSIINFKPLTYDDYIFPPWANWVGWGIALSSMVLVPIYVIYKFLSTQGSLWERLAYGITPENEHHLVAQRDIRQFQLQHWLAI

Molecule	Av IC50 Displacement of 3H-nisoxetine from hNET
YNGVCCGYYLCHPC [compound 212]	−2.00
YNGVCCGYILCHPC [compound 208]	−2.00

Same assay, conditions: Av IC50 Displacement of 3H-nisoxetine from hNET

Molecule	IC50
CC(C)C[C@@H]1NC(=O)[C@H](CCCCN)NC(=O)[C@H](Cc2ccc(O)cc2)NC(=O)CNC(=O)[C@@H]2CSSC[C@H](NC1=O)C(=O)N[C@@H](Cc1c[nH]cn1)C(=O)N[C@@H](Cc1ccccc1)C(=O)N[C@H](C(N)=O)CSSC[C@H](NC(=O)[C@@H](NC(=O)CNC(=O)[C@@H](N)CC(N)=O)C(C)C)C(=O)N2 [compound 155]	4070 nM
CC(C)C[C@@H]1NC(=O)[C@H](CCCCN)NC(=O)[C@H](Cc2ccc(O)cc2)NC(=O)CNC(=O)[C@@H]2CSSC[C@H](NC1=O)C(=O)N[C@@H](Cc1c[nH]cn1)C(=O)N[C@@H](CCC(=O)O)C(=O)N[C@H](C(N)=O)CSSC[C@H](NC(=O)[C@@H](NC(=O)CNC(=O)[C@@H](N)CC(N)=O)C(C)C)C(=O)N2 [compound 159] (HELM PEPTIDE1{N.G.V.C.C.G.Y.K.L.C.H.E.C.[am]}$PEPTIDE1,PEPTIDE1,4:R3-13:R3|PEPTIDE1,PEPTIDE1,5:R3-10:R3$$$V2.0)	4900 nM
CC(C)C[C@H](NC(=O)CNC(=O)[C@H](CCCNC(=N)N)NC(=O)[C@@H](N)Cc1c[nH]c2ccccc12)C(=O)N[C@H]1CSSC[C@@H](C(N)=O)NC(=O)[C@H](C)NC(=O)[C@H](CCCNC(=N)N)NC(=O)[C@@H]2CSSC[C@H](NC1=O)C(=O)NCC(=O)N[C@@H](Cc1ccc(O)cc1)C(=O)N[C@@H](CCCCN)C(=O)N[C@@H](CC(C)C)C(=O)N2 [compound 78]	275 nM
CC(C)C[C@@H]1NC(=O)[C@H](Cc2c[nH]cn2)NC(=O)[C@H](Cc2ccc(O)cc2)NC(=O)CNC(=O)[C@@H]2CSSC[C@H](NC1=O)C(=O)N[C@@H](Cc1c[nH]cn1)C(=O)N1CCC[C@H]1C(=O)N[C@H](C(N)=O)CSSC[C@H](NC(=O)[C@@H](NC(=O)CNC(=O)[C@@H](N)CC(N)=O)C(C)C)C(=O)N2 [compound 181] (HELM PEPTIDE1{N.G.V.C.C.G.Y.H.L.C.H.P.C.[am]}$PEPTIDE1,PEPTIDE1,4:R3-13:R3|PEPTIDE1,PEPTIDE1,5:R3-10:R3$$$V2.0)	47900 nM
CC(C)C[C@@H]1NC(=O)[C@H](CCCCN)NC(=O)[C@H](Cc2ccc(O)cc2)NC(=O)CNC(=O)[C@@H]2CSSC[C@H](NC1=O)C(=O)N[C@@H](Cc1c[nH]cn1)C(=O)N1CCC[C@H]1C(=O)N[C@H](C(N)=O)CSSC[C@H](NC(=O)[C@@H](NC(=O)[C@H](CCCCN)NC(=O)[C@@H](N)CC(N)=O)C(C)C)C(=O)N2 [compound 122] (HELM PEPTIDE1{N.K.V.C.C.G.Y.K.L.C.H.P.C.[am]}$PEPTIDE1,PEPTIDE1,4:R3-13:R3|PEPTIDE1,PEPTIDE1,5:R3-10:R3$$$V2.0)	1320 nM
CC[C@H](C)[C@H](NC(=O)CN)C(=O)N[C@@H](CC(C)C)C(=O)N[C@@H](CCCNC(=N)N)C(=O)N[C@@H](CC(N)=O)C(=O)NCC(=O)N[C@H](C(=O)N[C@H]1CSSC[C@@H](C(N)=O)NC(=O)[C@@H]2CCCN2C(=O)[C@H](Cc2c[nH]cn2)NC(=O)[C@@H]2CSSC[C@H](NC1=O)C(=O)NCC(=O)N[C@@H](Cc1ccc(O)cc1)C(=O)N[C@@H](CCCCN)C(=O)N[C@@H](CC(C)C)C(=O)N2)C(C)C [compound 105] (HELM PEPTIDE1{G.I.L.R.N.G.V.C.C.G.Y.K.L.C.H.P.C.[am]}$PEPTIDE1,PEPTIDE1,8:R3-17:R3|PEPTIDE1,PEPTIDE1,9:R3-14:R3$$$V2.0)	759 nM
CC(C)C[C@@H]1NC(=O)[C@H](CCCCN)NC(=O)[C@H](Cc2ccc(O)cc2)NC(=O)CNC(=O)[C@@H]2CSSC[C@H](NC1=O)C(=O)N[C@@H](Cc1c[nH]cn1)C(=O)N[C@@H](CCCCN)C(=O)N[C@H](C(N)=O)CSSC[C@H](NC(=O)[C@@H](NC(=O)CNC(=O)[C@@H](N)CC(N)=O)C(C)C)C(=O)N2 [compound 117] (HELM PEPTIDE1{N.G.V.C.C.G.Y.K.L.C.H.K.C.[am]}$PEPTIDE1,PEPTIDE1,4:R3-13:R3|PEPTIDE1,PEPTIDE1,5:R3-10:R3$$$V2.0)	1150 nM
